Data taken from patent publication US10251871B2, “Compositions and methods for treatment of edema” (Memorial Sloan Kettering Cancer Center, priority 2015, dated 2019).

Experiments:
[1] = Tacrolimus blood level by mass spectrometry; assay type: in vivo, mice
Method: Blood levels of tacrolimus were measured using mass spectrometry in a modification of a previously reported method. Donaldson et al., Meth. Mol. Biol. 603:479-487 (2010). Briefly, whole blood was collected in sodium EDTA-coated tubes (Terumo, Shibuya, Japan) and then analyzed using a Thermo Scientific Aria TLX-2 turbulent flow chromatograph (TFC) coupled to a TSQ Quantum Ultra triple quadrupole mass spectrometer (Thermo Scientific, Franklin, Mass.). The TurboFlow column used was a Cyclone P-50×0.5 mm while the analytical column was a Hypersil Gold C-18 column, 3×50 mm. To whole blood (50 μL) was added 200 μL of 0.2 mM ZnSO4 containing ascomycin as an internal standard. Following a 30 minute incubation and centrifugation, 50 μL of the supernatant was injected into the TFC system. The analytes were eluted through the column (0.75 mL min^−1) with a gradient of water and methanol solutions containing 10 mM ammonium formate and 0.1% formic acid. The analytical run time was 4.5 minutes. The between-day imprecision of the assay was determined at three concentrations over a period of 10 days. At concentrations of 3.3, 12.6 and 31.9 ng mL^−1 the coefficients of variation were of 9.8, 7.0 and 7.8%, respectively. The assay has a linear range from 0 to 40 ng mL^−1.

[2] = test system: corneal lymphatic and blood vessels; assay: Corneal lymphangiogenesis assay (suture placement); assay type: in vivo, mice; conditions: systemic tacrolimus 4 mg kg^−1 IP daily for 2 weeks after suture placement, vs vehicle
Description: To determine the lymphangiogenic effects of tacrolimus in other inflammatory and wound models in which drainage of lymphatic fluid is not obstructed surgically, we next used two other models of inflammatory lymphangiogenesis. The cornea is a useful tissue for studying lymphangiogenesis because it is normally devoid of both blood and lymphatic vessels but develops both in the setting of inflammation. Cursiefen et al., J. Clin. Invest. 113:1040-1050 (2004). […] A corneal lymphangiogenesis assay was performed as previously reported. Cursiefen et al., Cornea 25:443-447 (2006). Briefly, 10-0 nylon sutures (Ethicon, Cincinnati, Ohio) were placed in the cornea at […]. Beginning immediately after suture placement, animals were treated with systemic tacrolimus or vehicle control daily for two weeks, followed by analysis using confocal microscopy (Leica Microsystems, Weitziar, Germany). […] Cutaneous lymphangiogenesis was assessed using an ear punch wound model as previously reported. […] Tile-scan images were obtained using a confocal microscope (Leica Microsystems, Weitziar, Germany) and skin within 400 μm of the wound edge was analyzed using Metamorph software (Molecular Devices, Sunnyvale, Calif.). Standardized (200 μm×200 μm) fields were analyzed for the number of branch points present per unit area by two blinded reviewers.

[3] = test system: blood vessel permeability; assay: Miles assay for vascular permeability after PLND; assay type: in vivo; conditions: topical tacrolimus 2 weeks, PLND mice, vs vehicle control
Method: Additionally, to ensure that the observed effects of tacrolimus on lymphatic function were not a result of decreased vascular permeability and blood vessel leakage, we performed a Miles assay to measure blood vessel permeability following PLND surgeries with and without tacrolimus. […] In-vivo detection of ROS was performed by bioluminescent imaging of NADPH oxidase as described by Han et al. (J. Vis. Exp. doi: 10.3791/3925 (2012)). Briefly, mice were systemically injected with L-012 (an analogue of luminol) (20 μg/g) dissolved in PBS at different time points after PLND and luminescent signals representing ROS at the PLND surgery site were imaged and quantified using IVIS spectrum 200 (Xenogen Corporation). Miles assay for vascular permeability was performed as described. Radu et al., J. Vis. Exp. doi: 10.3791/50062 (2013). Briefly, 200 μl of 0.5% sterile Evans blue was injected via tail vein to 2 weeks tacrolimus treated PLND mice. After 30 min PLND hind limbs were imaged to observe Evans blue leakage. Hind limbs were excised and incubated in formamide for 48 hrs. at 55° C. to extract the Evans blue. Extracted Evans blue was quantified by measuring absorbance at 610 nm.

whole blood tacrolimus levels ([1]; systemic tacrolimus 4 mg kg^−1 IP daily): immunosuppressive concentrations | whole blood tacrolimus level (systemic absorption), mean value ([1]; topical tacrolimus): 1.06 ng/mL
Structure (SMILES): C=CC[C@@H]1/C=C(\C)C[C@H](C)C[C@H](OC)[C@H]2O[C@@](O)(C(=O)C(=O)N3CCCC[C@H]3C(=O)O[C@H](/C(C)=C/[C@@H]3CC[C@@H](O)[C@H](OC)C3)[C@H](C)[C@@H](O)CC1=O)[C@H](C)C[C@@H]2OC [tacrolimus]
increase in proliferation of corneal lymphatic vessels (LYVE-1+) [2]: 48% | blood vessel permeability (Evans blue) [3]: no differences
